Assay: Long-term stability in spiked pooled human plasma

| Compound | Long-term stability, 1 month, -20°C Accuracy [%] (validation standard 2xLLOV) | Long-term stability, 1 month, -80°C Accuracy [%] (validation standard 2xLLOV) | Long-term stability, 2 month, -20°C Accuracy [%] (validation standard 2xLLOV) | Long-term stability, 2 month, -80°C Accuracy [%] (validation standard 2xLLOV) | Long-term stability, 3 month, -20°C Accuracy [%] (validation standard 2xLLOV) | Long-term stability, 3 month, -80°C Accuracy [%] (validation standard 2xLLOV) | Long-term stability, 6 weeks, 4°C, without daylight Accuracy [%] (validation standard 2xLLOV) | Long-term stability, 1 month, -20°C Accuracy [%] (validation standard LLOV) | Long-term stability, 1 month, -80°C Accuracy [%] (validation standard LLOV) | Long-term stability, 2 month, -20°C Accuracy [%] (validation standard LLOV) | Long-term stability, 2 month, -80°C Accuracy [%] (validation standard LLOV) | Long-term stability, 3 month, -20°C Accuracy [%] (validation standard LLOV) | Long-term stability, 3 month, -80°C Accuracy [%] (validation standard LLOV) | Long-term stability, 1 month, -20°C Accuracy [%] (validation standard MOV) | Long-term stability, 1 month, -80°C Accuracy [%] (validation standard MOV) | Long-term stability, 2 month, -20°C Accuracy [%] (validation standard MOV) | Long-term stability, 2 month, -80°C Accuracy [%] (validation standard MOV) | Long-term stability, 3 month, -20°C Accuracy [%] (validation standard MOV) | Long-term stability, 3 month, -80°C Accuracy [%] (validation standard MOV) | Long-term stability, 6 weeks, 4°C, without daylight Accuracy [%] (validation standard MOV) | further results |
| --- | --- | --- | --- | --- | --- | --- | --- | --- | --- | --- | --- | --- | --- | --- | --- | --- | --- | --- | --- | --- | --- |
| Nc1cccc2c1CN(C1CCC(=O)NC1=O)C2=O (centres unmarked) [Lenalidomide] | 112.2 | 103.2 | 97.9 | 104.0 | 99.5 | 104.1 | 15.8 | 104.5 | 96.6 | 52.8 | 56.2 | 69.1 | 82.4 | 93.9 | 93.9 | 101.8 | 104.0 | 92.9 | 96.0 | 19.7 | Long-term stability, 1 month, -20°C Accuracy [%] (validation standard ULOV): 92.6%; Long-term stability, 1 month, -80°C Accuracy [%] (validation standard ULOV): 88.5%; Long-term stability, 2 month, -20°C Accuracy [%] (validation standard ULOV): 95.8%; Long-term stability, 2 month, -80°C Accuracy [%] (validation standard ULOV): 98.8%; Long-term stability, 3 month, -20°C Accuracy [%] (validation standard ULOV): 89.8%; Long-term stability, 3 month, -80°C Accuracy [%] (validation standard ULOV): 94.4%; Long-term stability, 6 weeks, 4°C, without daylight Accuracy [%] (validation standard ULOV): 16.2% |
| COc1cc2nccc(Oc3ccc(NC(=O)NC4CC4)c(Cl)c3)c2cc1C(N)=O [Lenvatinib] | 99.7 | 94.9 | 97.0 | 100.9 | 103.0 | 104.8 | 105.2 | 109.4 | 107.0 | 102.7 | 108.7 | 105.7 | 110.3 | 95.8 | 94.5 | 98.2 | 97.2 | 99.7 | 100.5 | 107.3 | Long-term stability, 6 weeks, 4°C, without daylight Accuracy [%] (validation standard LLOV): 127.4%; Long-term stability, 1 month, -20°C Accuracy [%] (validation standard ULOV): 96.4%; Long-term stability, 1 month, -80°C Accuracy [%] (validation standard ULOV): 94.7%; Long-term stability, 2 month, -20°C Accuracy [%] (validation standard ULOV): 101.7%; Long-term stability, 2 month, -80°C Accuracy [%] (validation standard ULOV): 101.9%; Long-term stability, 3 month, -20°C Accuracy [%] (validation standard ULOV): 98.3%; Long-term stability, 3 month, -80°C Accuracy [%] (validation standard ULOV): 100.8%; Long-term stability, 6 weeks, 4°C, without daylight Accuracy [%] (validation standard ULOV): 101.9% |
| CO[C@@H]1[C@H](N(C)C(=O)c2ccccc2)C[C@H]2O[C@]1(C)n1c3ccccc3c3c4c(c5c6ccccc6n2c5c31)C(=O)NC4 [Midostaurin] | 105.5 | 106.8 | 106.0 | 108.5 | 97.1 | 106.8 | 94.2 | 109.4 | 106.4 | 106.5 | 101.2 | 102.8 | 112.8 | 105.8 | 108.1 | 113.7 | 116.3 | 102.0 | 102.9 | 103.5 | Long-term stability, 6 weeks, 4°C, without daylight Accuracy [%] (validation standard LLOV): 102.3%; Long-term stability, 1 month, -20°C Accuracy [%] (validation standard ULOV): 107.3%; Long-term stability, 1 month, -80°C Accuracy [%] (validation standard ULOV): 103.4%; Long-term stability, 2 month, -20°C Accuracy [%] (validation standard ULOV): 118.6%; Long-term stability, 2 month, -80°C Accuracy [%] (validation standard ULOV): 111.4%; Long-term stability, 3 month, -20°C Accuracy [%] (validation standard ULOV): 93.8%; Long-term stability, 3 month, -80°C Accuracy [%] (validation standard ULOV): 107.0%; Long-term stability, 6 weeks, 4°C, without daylight Accuracy [%] (validation standard ULOV): 97.3% |
| CCOc1cc2ncc(C#N)c(Nc3ccc(OCc4ccccn4)c(Cl)c3)c2cc1NC(=O)/C=C/CN(C)C [Neratinib] | 79.9 | 84.9 | 67.5 | 94.6 | 70.3 | 90.2 | 7.4 | 66.9 | 71.8 | 77.1 | 88.3 | 50.3 | 81.4 | 82.9 | 84.6 | 81.2 | 92.9 | 79.5 | 92.5 | 10.0 | Long-term stability, 1 month, -20°C Accuracy [%] (validation standard ULOV): 79.7%; Long-term stability, 1 month, -80°C Accuracy [%] (validation standard ULOV): 78.2%; Long-term stability, 2 month, -20°C Accuracy [%] (validation standard ULOV): 82.8%; Long-term stability, 2 month, -80°C Accuracy [%] (validation standard ULOV): 88.3%; Long-term stability, 3 month, -20°C Accuracy [%] (validation standard ULOV): 75.5%; Long-term stability, 3 month, -80°C Accuracy [%] (validation standard ULOV): 91.8%; Long-term stability, 6 weeks, 4°C, without daylight Accuracy [%] (validation standard ULOV): 8.5% |

Source: article PMC8699473, “An Easily Expandable Multi-Drug LC-MS Assay for the Simultaneous Quantification of 57 Oral Antitumor Drugs in Human Plasma” (Cancers, 2021)
